Measurements reported in patent publication US20210047278A1, “E3 UBIQUITIN LIGASE AGONISTS, PHARMACEUTICAL COMPOSITIONS INCLUDING THE E3 UBIQUITIN LIGASE AGONISTS, RELATED METHODS OF USE” (FRED HUTCHINSON CANCER RESEARCH CENTER, priority 2018, published 2021).
Where two headings read alike, the source gives them in different places.

Tests used:
Format in all cases: binding
FBW7^ARG+pCycE = target: T1, FBW7^ARG+pCycE (Homo sapiens, UniProt Q969H0, R505L); assay: FBW7^ARG-cyclin E agonist ALPHAscreen (primary PRUN, confirmation CRUN1, dose-response DRUN); details: for EC50 / Emax: DRUN dose-response; for Emax: relative to WT-FBW7+pCycE, read-out: FBW7 ACT Averaged Max % Response
T1 construct: GST (TEV site and flexible linker) (N, cleaved yes); made in house; host or cells: SF9 insect cells (baculovirus)
T1 sequence (Q969H0 64-707 R505L): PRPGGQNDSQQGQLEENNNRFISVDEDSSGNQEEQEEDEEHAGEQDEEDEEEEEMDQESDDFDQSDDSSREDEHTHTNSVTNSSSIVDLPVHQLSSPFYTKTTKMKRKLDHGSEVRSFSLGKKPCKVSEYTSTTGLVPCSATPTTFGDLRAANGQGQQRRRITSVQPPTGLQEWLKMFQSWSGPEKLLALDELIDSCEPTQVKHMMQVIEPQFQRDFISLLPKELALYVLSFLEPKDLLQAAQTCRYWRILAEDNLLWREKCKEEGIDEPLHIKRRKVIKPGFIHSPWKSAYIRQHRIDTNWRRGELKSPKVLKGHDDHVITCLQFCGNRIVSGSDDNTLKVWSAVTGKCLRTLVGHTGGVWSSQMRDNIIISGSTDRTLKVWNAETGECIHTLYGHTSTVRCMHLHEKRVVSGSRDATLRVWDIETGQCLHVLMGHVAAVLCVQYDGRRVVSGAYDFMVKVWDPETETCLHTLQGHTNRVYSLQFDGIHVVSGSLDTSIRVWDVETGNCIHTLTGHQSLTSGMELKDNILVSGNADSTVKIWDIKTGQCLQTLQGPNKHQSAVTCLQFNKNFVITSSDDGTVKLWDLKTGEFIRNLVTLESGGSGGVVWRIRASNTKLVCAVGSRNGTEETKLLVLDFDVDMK
T1 sequence (P63208 2-163 partner): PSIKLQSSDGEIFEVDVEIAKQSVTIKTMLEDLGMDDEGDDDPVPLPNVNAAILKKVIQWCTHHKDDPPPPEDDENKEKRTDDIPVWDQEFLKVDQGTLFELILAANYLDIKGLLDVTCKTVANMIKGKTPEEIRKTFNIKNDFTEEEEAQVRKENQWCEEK
Description: FBW7^ARG refers to a class of loss-of-function mutations of the of FBW7 ubiquitin ligase that target a key phosphate-binding arginine residue in the FBW7 substrate-binding domain. These mutations are commonly found in human cancers and promote tumorigenesis by impairing the interactions between FBW7 and its substrates, such as cyclin E and Myc. Described herein is a high throughput screen (HTS) to identify agonists, such as small molecules, that augment FBW7^ARG-substrate binding. In an embodiment, the HTS is based on the Amplified Luminescent Proximity Homogenous Assay (ALPHAscreen) because it detects protein-protein interactions with a large dynamic range. ALPHAscreen is a bead-based proximity assay wherein donor beads contain a photosensitizer, phthalocyanine, and acceptor beads contain thioxene, anthracene and rubrenein in sufficient quantities to generate a chemiluminescence/fluorescence reaction (FIG. 4A). Upon excitation with excitation illumination, such as light having a wavelength of 680 nm, of the donor beads, phthalocyanine converts ambient oxygen to singlet oxygen, which can diffuse approximately 200 nm within its 4-microsecond half-life. If an acceptor bead is in close proximity to an excited donor bead, singlet oxygen transfers its energy to the acceptor, resulting in emitted light at a broad bandwidth of −520-620 nm. The HTS-compatible FBW7/cyclin E ALPHAscreen assay described herein uses streptavidin coupled donor beads and Ni-chelate acceptor beads. In this assay, biotinylated cyclin E phosphopeptide and the His-tagged FBW7 mutant protein have high affinity for the donor and acceptor beads, respectively (FIG. 4B). A small molecule that is able to bridge the binding sites of the peptide and the mutant protein (or induce a conformational change that increases affinity of the protein for the peptide) will bring the donor and acceptor beads in close proximity to each other, resulting in an ALPHA signal. As designed, this assay format is a very sensitive, non-radioactive, homogenous “mix-and-read” format that is HT compatible in 384 and 1536 well formats.
In the 384-well screening assay, 10 uL of acceptor beads with 25 nM of the FBW7^ARG (RLFBW7) are dispensed to test wells; acceptor beads with 25 nM of the wt-FBW7 protein (WTFBW7) are dispensed to control wells. Test compounds are then added by pintool transfer and the mixture is incubated for 30 minutes. An additional 10 uL of donor beads with 25 nM cyclin E phosphopeptide is then added to all wells and the plate is incubated for 4 hours before the ALPHA signal is measured.
In preparation for large-scale screening, the assay was miniaturized to a 1536-well format. The miniaturized screen performed outstandingly in all respects. The screen was enhanced with respect to several parameters and assayed its performance using mutant FBW7 and wt-FBW7, as well as non-specific assay agonists. […] For example, the following Z′-scores/FBW7 concentrations were obtained: 6.25 nM/Z′=0.62, 12.5 nm/Z′=0.85, 25.0 nM/Z′=0.84.
1. Add 2.5 uL of RLFBW7/cycE˜P/Ni beads: Final [25 nM/25 nM/10 ug/ml].
2. Add 2.5 uL of WTFBW7/cycE˜P/Ni beads: Final [25 nM/25 nM/10 ug/ml].
4. Add 2.5 uL of SA beads to all wells Final [10 ug/ml],
5. Add 30 nL of compounds,
6. Read ALPHAscreen on Envision
The large-scale FBW7 agonist ALPHAscreen was completed using FBW7^ARG and a phosphorylated cyclin E (pCycE) degron peptide. Wt-FBW7+pCycE-peptide was the “high control”, and Wt-FBW7+unphosph. CycE peptide was the “low control”. The screen was performed on the 645,000-compound Scripps Diversity Library using 1536-well format and drug concentrations of 26.1 μM. An algorithm aided hit identification based on the average percent activation for all compounds and their standard deviation.
A confirmation assay of all 853 compounds in triplicate using a single concentration (26.1 μM). […]

FBW7^ARG (RLFBW7) alone = target: T2, FBW7^ARG (RLFBW7) alone (Homo sapiens, UniProt Q969H0, R505L); assay: Counterscreen 1 ALPHAscreen with FBW7^ARG alone (CSRUN1/DCSRUN1); details: dose-response counterscreen; for Emax: read-out: RLFBW7 ACT DCSRUN1 Averaged Max % Response
T2 construct: GST (TEV site and flexible linker) (N, cleaved yes); made in house; host or cells: SF9 insect cells (baculovirus)
T2 sequence (Q969H0 64-707 R505L): as the sequence (Q969H0 64-707 R505L) above
T2 sequence (P63208 2-163 partner): as the sequence (P63208 2-163 partner) above
Description: (§1) Studies in 384-well format were performed using the ENVISION system. Reagent concentrations (see FIG. 6A), order of addition, pH (see FIG. 6B), and reducing agent were altered with the goal of enhancing the dynamic range between wt-FBW7 (the positive control) and FBW7^ARG (FIG. 6 and not shown). Wt-FBW7 produced a signal 100× greater with phosphorylated cyclin E degron peptide compared with unphosphorylated, which represents the assay's maximum range (FIG. 6C). […] This assay thus detects the residual affinity of the FBW7^ARG-substrate interaction, which, as predicted, is stronger than wt-FBW7 protein with unphosphorylated cyclin E peptide. Concurrent with this primary assay, counter ALPHAscreens were developed which omitted either FBW7 or peptide (to eliminate hits that are general ALPHAscreen agonists), or used an irrelevant phosphopeptide (to eliminate compounds that simply augment binding to phosphopeptides). […]
(§2) The 77 hits were subjected to a dose-response assay in which each compound was tested in triplicate in a 10 point 3-fold dilutional series, to a maximum concentration of approximately 87 μM. Three screens were performed, using FBW7^ARG+pCycE (DRUN), FBW7^ARG (DCSRUN1), or pCycE alone (DCSRUN2). See TABLES 2, 3, and 4, respectively, and FIG. 10A. All of the assays performed extremely well, and threshold of 10% activation (relative to WT-FBW7+pCycE) was set as positive. […] Many hits fell into shared structure cluster ID groups, reinforcing the idea that they function as specific agonists (see below and TABLE 5).

pCycE alone = assay: Counterscreen 2 ALPHAscreen with cyclin E phosphopeptide alone (CSRUN2/DCSRUN2); details: for CyCEP ACT DCSRUN2 Averaged Max % Response: activation relative to WT-FBW7+pCycE, averaged maximum; for EC50: dose-response, triplicate, 10 point 3-fold dilutional series, read-out: CyCEP ACT DCSRUN2 Final EC50
Description: as §1, §2

[1] = raw curve fit, read-out: FBW7 ACT EC50 Curve Fit Raw, Molar
[2] = triplicate, 10 point 3-fold dilution, max approx. 87 μM, read-out: FBW7 ACT Final EC50, Molar
[3] = confirmation assay, triplicate, single concentration 26.1 μM, read-out: FBW7 ACT CRUN1 Avg % Response and Stdev
[4] = primary screen, 1536-well, 26.1 μM, FBW7^ARG + pCycE degron peptide, high control wt-FBW7+pCycE, read-out: FBW7 ACT PRUN % Response
[5] = raw curve fit, read-out: RLFBW7 ACT DCSRUN1 EC50 Curve Fit Raw
[6] = read-out: RLFBW7 ACT DCSRUN1 Final EC50

SMILES	EC50 (FBW7^ARG+pCycE; [1]) [µM]	Emax (FBW7^ARG+pCycE) [%]	EC50 (FBW7^ARG+pCycE; [2]) [µM]	activation at 26.1 µM (FBW7^ARG+pCycE; [3]) [%]	activation at 26.1 µM (FBW7^ARG+pCycE; [4]) [%]	EC50 (FBW7^ARG (RLFBW7) alone; [5]) [µM]	Emax (FBW7^ARG (RLFBW7) alone) [%]	EC50 (FBW7^ARG (RLFBW7) alone; [6]) [µM]	CyCEP ACT DCSRUN2 Averaged Max % Response (pCycE alone) [%]	EC50 (pCycE alone) [µM]
Cc1nc(C(C)NC(=O)c2cc(COc3ccc(F)cc3F)on2)cs1 (centres unmarked) [SR-01000168282-1]	2.3	6.52	> 65.3	1.88 ± 0.38	2.02	0.0108	1.75	> 65.3	0.37	> 65.3
CC1=C(C(=O)OC(C)C)C(c2ccncc2)C2=C(CC(c3ccccc3)CC2=O)N1 (centres unmarked) [SR-01000217822-2]	23	7.67	> 60.9	6.36 ± 0.25	2.06	25.2	0.88	> 60.9	0.03	> 60.9
CCN1C(=O)c2cccc3c(N4CCCC4)ccc(c23)C1=O [SR-01000221568-1]	17.4	16.3	> 65.3	3.1 ± 0.38	2.07	14.2	8.96	> 65.3	0.35	> 65.3
COc1cccc(C=O)c1OC(=O)c1cccc(Cl)c1 [SR-01000242625-1]	26.7	33.6	> 65.3	9.26 ± 0.67	11.9	0.0369	1.05	> 65.3	0.61	> 65.3
CCCOc1ccc(C2C(C(=O)OC)=CN(CCOC)C=C2C(=O)OC)cc1 [SR-01000259436-1]	21.9	10.7	> 65.3	2.9 ± 0.27	2.13	19	5.19	> 65.3	0.31	> 65.3
CCN(CC)c1ccc2cc(-c3nc(C)cs3)c(=O)oc2c1 [SR-01000312020-1]	8.2	13.9	> 65.3	5.16 ± 7.04	3.44	11.6	6.67	> 65.3	0.77	> 65.3
COc1cccc(/C=N/c2cnn(C)c2C(N)=O)c1O [SR-01000314216-1]	26.4	22.7	> 65.3	4.06 ± 0.07	3.64	–	0.25	> 65.3	0.18	> 65.3
CCN(CC)c1ccc2c(c1)OC(N)=C(C#N)C2c1ccccc1 (centres unmarked) [SR-01000320053-1]	31.4	13.7	> 65.3	2.14 ± 0.69	3.43	75.4	6.24	> 65.3	0.22	> 65.3
COc1ccccc1-c1ccc(=O)n(CC(=O)Nc2ccc(C(=O)N3CCCC3)cc2)n1 [SR-01000332536-1]	19.1	18	> 65.3	4.43 ± 0.25	4.09	6.3	0.2	> 65.3	0.12	> 65.3
CCC(c1nnnn1CCC(C)C)N1CCN(C(=O)c2ccco2)CC1 (centres unmarked) [SR-01000340422-1]	24	6.45	> 65.3	2.97 ± 0.23	2.16	2.3	0.87	> 65.3	0.18	> 65.3
Cc1ccc2nc(SCC(=O)Nc3ncc(C)s3)c(C#N)cc2c1 [SR-01000340506-1]	14.9	10.7	> 65.3	3.87 ± 0.19	3.77	16.2	35.6	> 65.3	0.24	> 65.3
CCSc1nnc(C2CCN(CC(=O)Nc3cccc4ccccc34)CC2)n1C [SR-01000349710-1]	18	22.9	> 65.3	7.92 ± 0.35	2.77	47.6	0.67	> 65.3	0.22	> 65.3
O=c1c2cnn(-c3ccccc3)c2nnn1Cc1cccnc1 [SR-01000355082-1]	0.009	6.4	> 65.3	2.54 ± 0.42	1.95	11.9	2.7	> 65.3	0.12	> 65.3
COc1cccc(/C=N/c2ccc3[nH]ncc3c2)c1O [SR-01000359514-1]	21.1	15.2	> 65.3	2.38 ± 0.5	6.3	23.7	0.39	> 65.3	0.13	> 65.3
CC(C)c1ccc(Nc2nccn3c(-c4ccoc4)cnc23)cc1 [SR-01000376943-1]	12.7	6.99	> 65.3	2.06 ± 0.33	2.3	13.9	-0.189	> 65.3	1.39	> 65.3
